Results reported in PubChem BioAssay (NCI).
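Abbreviation: GI50, concentration required for 50% inhibition of growth. TGI: concentration producing complete growth inhibition.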

Columns and labels:
Assay in all cases: growth of human tumour cells (NCI), 384-well format
[1] = tested on: SN12C renal
[2] = tested on: SK-MEL-28 melanoma
[3] = tested on: SF-295 CNS
[4] = tested on: HCC-2998 colon
[5] = tested on: PC-3 prostate
[6] = tested on: OVCAR-8 ovarian
[7] = tested on: MDA-MB-468 breast
[8] = tested on: A498 renal
[9] = tested on: NCI-H226 lung
[10] = tested on: SNB-19 CNS
[11] = tested on: M14 melanoma
[12] = tested on: HOP-62 NSCLC
[13] = tested on: HL-60(TB) leukemia
[14] = tested on: NCI-H322M lung
[15] = tested on: T-47D breast
[16] = tested on: OVCAR-5 ovarian
[17] = tested on: UACC-257 melanoma
[18] = tested on: SF-268 CNS
[19] = tested on: CAKI-1 renal
[20] = tested on: MCF7 breast
[21] = tested on: MOLT-4 leukemia
[22] = tested on: U251 glioblastoma
[23] = tested on: MDA-MB-435 melanoma
[24] = tested on: OVCAR-3 ovarian
[25] = tested on: SK-OV-3 ovarian
[26] = tested on: COLO 205 colon
[27] = tested on: EKVX NSCLC
[28] = tested on: K-562 leukemia
[29] = tested on: NCI/ADR-RES ovarian

## Cc1ccc(NC(=O)c2ccc(CN3CCN(C)CC3)cc2)cc1Nc1nc(-c2cccnc2)cs1
[1]
  GI50: 12.7 µM
  TGI: 25.3 µM
[2]
  GI50: 1.91 µM
  TGI: 3.42 µM
[3]
  GI50: 1.84 µM
  TGI: 3.32 µM
[4]
  GI50: 1.84 µM
  TGI: 3.68 µM
[5]
  GI50: 3.25 µM
  TGI: 9.72 µM
[6]
  GI50: 3.54 µM
  TGI: 12.5 µM
[7]
  GI50: 1.65 µM
  TGI: 3.77 µM
[8]
  GI50: 2.42 µM
  TGI: 5.52 µM
[9]
  GI50: 3.84 µM
  TGI: 15.9 µM
[10]
  GI50: 10.6 µM
  TGI: 22.5 µM
[11]
  GI50: 2.07 µM
  TGI: 4.11 µM
[12]
  GI50: 4.31 µM
  TGI: 15.4 µM
[13]
  GI50: 1.74 µM
  TGI: 3.16 µM
[14]
  GI50: 3.39 µM
  TGI: 11.4 µM
[15]
  GI50: 1.76 µM
  TGI: 5.2 µM
[16]
  GI50: 3.4 µM
  TGI: 9.15 µM
[17]
  GI50: 1.82 µM
  TGI: 3.37 µM
[18]
  GI50: 4.08 µM
  TGI: 14 µM
[19]
  GI50: 3.9 µM
  TGI: 13 µM
[20]
  GI50: 1.94 µM
  TGI: 5.95 µM
[21]
  GI50: 1.55 µM
  TGI: 2.95 µM
[22]
  GI50: 2.36 µM
  TGI: 5.39 µM
[23]
  GI50: 6.47 µM
  TGI: 18.9 µM
[24]
  GI50: 2.24 µM
  TGI: 5.16 µM
[25]
  GI50: 3.89 µM
  TGI: 12.3 µM
[26]
  GI50: 3.64 µM
  TGI: 11 µM
[27]
  GI50: 4.22 µM
  TGI: 15.4 µM
[28]
  GI50: 0.283 µM
  TGI: 1.12 µM
[29]
  GI50: 5.47 µM
  TGI: 16.6 µM
